Results reported in EP4436951B1, “USE OF AURANTIAMIDE ACETATE IN THE TREATMENT OF HYPERTENSION” (Akdeniz Universitesidoner Sermaye Isletme Mudurlugu, priority 2021, dated 2023).

Legend:
[1] = cited from earlier work; for decrease in concentrations: 4 hours after administration; for decrease in concentrations / time to maximum plasma concentration / accumulation in tissues: rats; for decrease in concentrations / accumulation in tissues: oral; for toxic effects: administrations up to 100mg/kg; for time to maximum plasma concentration: oral administration of Portulaca oleracea L extracts
[2] = system: 2K-1C renovascular hypertension; experiment: Blood pressure by non-invasive tail-cuff method in rats, Goldblatt two kidneys single clip (2K-1C) hypertension model; assay type: in vivo, Wistar rats
From the text: (§1) 5 experimental groups were formed to observe the effects of aurantiamide acetate. Eight […] male Wistar rats were used in each group. The experimental groups created are as follows: • 1. Control group, • 2. SHAM operated (the abdominal cavity is opened and closed by suturing again without any procedure) group, • 3. Aurantiamide acetate (ASP) administered group, • 4. Hypertension (HT) group, • 5. Hypertension+aurantiamide acetate (HT+ASP) administered group.
Hypertension was induced in rats with the Goldblatt model with two kidneys and a single clip (2K-1C). In this model, no operation was performed on the right kidney. The left renal artery was narrowed to 0.22 mm in diameter. In the surgical hypertension model created, renin secretion by the kidney with decreased blood flow led to increased angiotensin II (ANG II) formation and therefore an increase in blood pressure. Sodium excretion by the intact contralateral kidney increases as blood pressure increases (pressure natriuresis), therefore, there was no sodium retention. The rats were anesthetized intraperitoneally before the operation. In the creation of the hypertension model, 90 mg/kg ketamine and 10 mg/kg xylazine were administered intraperitoneally for anesthesia. After anesthesia, the abdomens of the rats were shaved and disinfected with betadine. After disinfection, a midline incision was made and the left kidney was exposed. The left renal artery was isolated from the renal vein, and to induce 2K-1C renovascular hypertension, the circumference of the left renal artery was narrowed gently to 0.22 mm in diameter by 5/0 non-absorbable silicone-coated silk sutures The same procedure was applied to SHAM operated group rats, but the left renal artery was not narrowed. Postoperatively, the peritoneum was sutured with 3/0 absorbable polyglycan suture and the skin layer was sutured with 3/0 non-absorbable silk suture. In the hypertension model, it was waited for 1 week to observe the increase in blood pressure in the hypertension and hypertension+aurantiamide acetate groups, and then blood pressure was measured.
The blood pressures of the animals were measured by the non-invasive tail-cuff method. An occlusive cuff and a piezoelectric impact sensor are placed around the tail. Arterial blood pressure measurements were taken weekly at the same time of day (9:00 am to 12:00 am) to avoid influencing the circadian cycle. Basal blood pressure was measured after delivery of each rat, and blood pressures were recorded regularly every week for 4 weeks until sacrifice. The data acquisition system reported blood pressure (mmHg) as systolic, diastolic, and mean. Each measurement was repeated three times and the average of these three data was taken.
(§2) Aurantiamide acetate was applied to the ASP and HT+ASP groups among the experimental groups. A 100 mM stock was prepared by dissolving 10 mg of aurantiamide acetate in 225 µl of dimethyl sulfoxide (DMSO). For 200 g rat, µl of aurantiamide acetate was administered in 100 µl. Weekly 2.5 mg/kg of aurantiamide acetate was administered intraperitoneally for 4 weeks, 0.5 mg/kg daily, 5 days a week. In total, each rat was given 10 mg/kg of aurantiamide acetate. To eliminate the effects of daily intraperitoneal (i.p.) injection; equal volumes (100 µl) of i.p.DMSO were injected into the rats of control group, SHAM-operated group, and hypertension group. Changes in body weight, blood pressure values, erythrocyte deformability, vascular isolation, and vascular tone were investigated in the experimental groups during the experiment.
Blood pressure values were examined in the experimental groups during the experimental period.

[3] = system: erythrocytes; experiment: Erythrocyte deformability by ektacytometer (laser diffraction) after 4-week treatment; assay type: in vivo, Wistar rats; details: 37°C
From the text: as §1
Aurantiamide acetate was applied to the ASP and HT+ASP groups among the experimental groups. A 100 mM stock was prepared by dissolving 10 mg of aurantiamide acetate in 225 µl of dimethyl sulfoxide (DMSO). For 200 g rat, µl of aurantiamide acetate was administered in 100 µl. Weekly 2.5 mg/kg of aurantiamide acetate was administered intraperitoneally for 4 weeks, 0.5 mg/kg daily, 5 days a week. In total, each rat was given 10 mg/kg of aurantiamide acetate. […]
Erythrocyte deformability was measured in the experimental groups. […] Erythrocyte deformability was evaluated by laser diffraction analysis at various fluid shear forces. […] Thus, the deformability of erythrocytes in response to increased shear forces was determined. […] The erythrocyte deformability was calculated by the system as an elongation index. Elongation index (EI) values were measured between nine shear forces (0.30 - 75.02 Pa). […]

[4] = system: Thoracic Aorta; experiment: Vascular tone of isolated thoracic aorta rings in organ bath after 4-week treatment (KCl, Phe, ACh and SNP protocols); assay type: in vivo, Wistar rats
From the text: as §1, §2
Vascular isolation was investigated in the experimental groups. The rats in all experimental groups were anesthetized with intraperitoneal ketamine/xylazine (45 mg/kg ketamine and 10 mg/kg xylazine) anesthesia at the end of the 4-week experimental period. After their abdomens were opened, blood was drawn from their abdominal aorta to obtain plasma as well as for use in measuring deformability, and rats were sacrificed by anemia. The thoracic aorta was quickly opened and the thoracic aorta was separated from the other tissues, and removed. As soon as the thoracic aorta tissue is removed, it was taken into a beaker containing Krebs solution (110 mM sodium chloride (NaCl), 5 mM potassium chloride (KCI), 24 mM sodium bicarbonate (NaHCO3), 1 mM mono potassium phosphate (KH2PO4), 1 mM magnesium sulfate heptahydrate (MgSO4.7H2O), 2.5 mM calcium chloride (CaCl2), 10 mM glucose, 0.02 mM ethylenediamine tetraacetic acid (EDTA); pH=7.4). After the tissue was washed with cold Krebs, the dissection stage was started. For the microdissection stage, the thoracic aorta, taken in a petri dish containing cold Krebs, is fixed to the medium, and fat and connective tissue were removed from the artery at the appropriate magnification by using a dissecting microscope. The isolated thoracic aorta is divided into rings of appropriate length. In addition, the rest of the aorta tissue was removed and stored under appropriate conditions for histological and biochemical parameters. Vascular tone was evaluated in the experimental groups. Vascular tone in the experimental groups was analyzed as in the previous work of the project team. After the isolated thoracic aorta is divided into 2 - 2.5 mm long rings; it was gasified with a gas mixture containing 95% O2 - 5% CO2, and it was placed in an organ bath with 10 ml of Krebs solution at 37°C and pH 7.4. After the vessel rings are attached to the isometric transducer by means of a tight rope by hanging them on steel wires, they were washed every 15 minutes under 1 gram relaxation tension and rested for a total of 60 minutes. If the tension changed after each wash, attention was paid to bring it back to 1 gram of tension. After a one-hour relaxation tension (rest period), the vitalization stage, which is the prepulse stage, was applied to the vessels. For this process, after applying Krebs solution containing 20 mM potassium chloride (KCI), phenylephrine (Phe) was added at a concentration of 10^-7 M. This process was repeated 3 times in succession. After the vitalization procedure, the vessels were washed with Krebs solution and an additional 30-minute resting period was started. […]

[5] = Change in body weight during the administration period; assay type: in vivo, Wistar rats; details: between the experimental groups, Day 0 and end of 4th week
From the text: as §1
as §2, with “Changes in body weight, blood pressure values, erythrocyte deformability, vascular isolation, and vascular tone were investigated in the experimental groups during the experiment.” left out
The initial weights of the rats were measured in the range of 180-200 g. The weights of each rat before the experiment (Day 0) and after the experiment (at the end of the 4th week) were recorded. […]

[6] = aurantiamide acetate group (no hypertension) vs control and SHAM, p>0.05

Structure (SMILES): O=C(N[C@@H](Cc1ccccc1)C(=O)N[C@H](CO)Cc1ccccc1)c1ccccc1 [aurantiamide]
- decrease in concentrations [1]: approximately 90%
- toxic effects [1]: No toxic effects
- time to maximum plasma concentration [1]: approximately 12 minutes
- accumulation in tissues [1]: no long-term accumulation

Structure (SMILES): CC(=O)OC[C@H](Cc1ccccc1)NC(=O)[C@H](Cc1ccccc1)NC(=O)c1ccccc1 [aurantiamide acetate]
- mean arterial blood pressure ([2]; ASP group (no hypertension), second week, compared with control and SHAM operated groups, p<0.05, 0.5 mg/kg daily i.p., 5 days a week): significantly lower
- mean arterial blood pressure ([2]; ASP group (no hypertension), third week, compared with control group, p<0.05, 0.5 mg/kg daily i.p., 5 days a week): significantly lower
- mean arterial blood pressure ([2]; HT+ASP group, last week (week 4), compared to HT group, p<0.001): significant decrease
- mean arterial blood pressure ([2]; HT+ASP group, second week, compared to HT group, p<0.001, 0.5 mg/kg daily i.p., 5 days a week): significant decrease
- mean arterial blood pressure ([2]; HT+ASP group, second week, compared with control, SHAM and ASP groups, p<0.001): significantly higher
- mean arterial blood pressure ([2]; HT+ASP group, third week, compared to HT group, p<0.001): significant decrease
- mean arterial blood pressure ([2]; HT+ASP group, third week, compared with ASP group only, p<0.001): significantly higher
- mean arterial blood pressure ([2]; HT+ASP group, week 4, no difference from control, SHAM and ASP groups (p>0.05)): reduced to basal levels
- mean arterial blood pressure ([2]; within ASP group according to the weeks, p>0.05): did not show a significant difference
- erythrocyte deformability, Elmax values [3, 6]: no difference
- erythrocyte deformability ([3]; hypertension + aurantiamide acetate group compared to hypertension group, p<0.01): significant increase
- ACh-mediated relaxation response (endothelium-dependent) [4, 6]: no difference
- Phe-mediated contractile response [4, 6]: no differences
- SNP-mediated relaxation response (endothelium-independent) [4, 6]: no statistical difference
- KCl-mediated contractile response ([4]; aurantiamide acetate group (no hypertension) vs control, SHAM and hypertension groups, 20, 40 and 80 mM KCl, p>0.05): no differences
- Phe-mediated contractile response ([4]; hypertension+aurantiamide acetate group compared to hypertension group, p<0.05 and p<0.001): significantly reduced
- SNP-mediated relaxation response (endothelium-independent) ([4]; hypertension+aurantiamide acetate group compared to hypertension group, p>0.05): no difference
- KCl-mediated contractile response ([4]; hypertension+aurantiamide acetate group compared to the other groups, increasing KCl concentrations, p<0.001): significantly lower
- ACh-mediated relaxation response (endothelium-dependent) ([4]; hypertension+aurantiamide acetate group vs hypertension group, p<0.05 and p<0.01): improvement
- body weights before and after [5]: no significant difference
- decrease in concentrations [1]: approximately 90%
- toxic effects [1]: No toxic effects
- time to maximum plasma concentration [1]: approximately 12 minutes
- accumulation in tissues [1]: no long-term accumulation
